Data taken from the kinase profiling compilation of Christmann-Franck et al. (2016).

How the values were obtained:
Experiment in all cases: Caliper, Mobility shift assay off-chip
[1] = test system: EGFR (human), P00533 [T790M]
[2] = molecular target: FGFR1 (human) (UniProt P11362)
[3] = molecular target: MST1R (human) (UniProt Q04912)
[4] = molecular target: MARK4 (human) (UniProt Q96L34)
[5] = test system: PDGFRA (human), P16234 [V561D]
[6] = molecular target: EPHA8 (human) (UniProt P29322)
[7] = test system: KIT (human), P10721 [T670I]
KIT (human), P10721 [T670I], sequence (P10721 whole entry T670I, looked up): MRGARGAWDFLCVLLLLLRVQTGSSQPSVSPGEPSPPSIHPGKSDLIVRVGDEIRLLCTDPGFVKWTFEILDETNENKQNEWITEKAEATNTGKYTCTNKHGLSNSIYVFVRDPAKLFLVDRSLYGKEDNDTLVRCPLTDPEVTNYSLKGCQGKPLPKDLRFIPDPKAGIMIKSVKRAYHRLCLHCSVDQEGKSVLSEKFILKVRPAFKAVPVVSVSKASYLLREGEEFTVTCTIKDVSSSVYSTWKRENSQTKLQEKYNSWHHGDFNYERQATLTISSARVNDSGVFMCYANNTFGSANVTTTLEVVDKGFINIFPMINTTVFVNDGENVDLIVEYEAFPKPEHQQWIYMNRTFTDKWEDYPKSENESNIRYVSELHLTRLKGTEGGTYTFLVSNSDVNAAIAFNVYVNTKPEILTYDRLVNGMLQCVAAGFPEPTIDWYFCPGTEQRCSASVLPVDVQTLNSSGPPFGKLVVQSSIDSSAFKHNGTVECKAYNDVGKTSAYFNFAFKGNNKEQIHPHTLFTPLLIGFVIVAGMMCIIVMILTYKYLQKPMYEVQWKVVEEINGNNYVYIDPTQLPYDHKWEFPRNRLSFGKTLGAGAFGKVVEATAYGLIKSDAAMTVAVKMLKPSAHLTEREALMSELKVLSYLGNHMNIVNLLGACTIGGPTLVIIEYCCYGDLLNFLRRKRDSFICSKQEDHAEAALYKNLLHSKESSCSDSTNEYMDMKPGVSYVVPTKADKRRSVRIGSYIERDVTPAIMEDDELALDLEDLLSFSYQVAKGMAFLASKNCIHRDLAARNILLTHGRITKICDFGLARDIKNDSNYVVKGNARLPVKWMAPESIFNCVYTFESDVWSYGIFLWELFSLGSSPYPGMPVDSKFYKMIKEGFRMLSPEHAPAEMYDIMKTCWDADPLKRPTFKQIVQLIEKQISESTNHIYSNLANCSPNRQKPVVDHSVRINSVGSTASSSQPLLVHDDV

[8] = molecular target: MELK (human) (UniProt Q14680)
[9] = molecular target: CSNK1G3 (human) (UniProt Q9Y6M4)
[10] = molecular target: DAPK3 (human) (UniProt O43293)
[11] = molecular target: HIPK2 (human) (UniProt Q9H2X6)
[12] = molecular target: CLK2 (human) (UniProt P49760)
[13] = molecular target: RPS6KA6 KD1 KD2 (human) (UniProt Q9UK32)
[14] = molecular target: PHKG2 (human) (UniProt P15735)
[15] = molecular target: FRK (human) (UniProt P42685)
FRK (human), sequence (P42685 whole entry, looked up): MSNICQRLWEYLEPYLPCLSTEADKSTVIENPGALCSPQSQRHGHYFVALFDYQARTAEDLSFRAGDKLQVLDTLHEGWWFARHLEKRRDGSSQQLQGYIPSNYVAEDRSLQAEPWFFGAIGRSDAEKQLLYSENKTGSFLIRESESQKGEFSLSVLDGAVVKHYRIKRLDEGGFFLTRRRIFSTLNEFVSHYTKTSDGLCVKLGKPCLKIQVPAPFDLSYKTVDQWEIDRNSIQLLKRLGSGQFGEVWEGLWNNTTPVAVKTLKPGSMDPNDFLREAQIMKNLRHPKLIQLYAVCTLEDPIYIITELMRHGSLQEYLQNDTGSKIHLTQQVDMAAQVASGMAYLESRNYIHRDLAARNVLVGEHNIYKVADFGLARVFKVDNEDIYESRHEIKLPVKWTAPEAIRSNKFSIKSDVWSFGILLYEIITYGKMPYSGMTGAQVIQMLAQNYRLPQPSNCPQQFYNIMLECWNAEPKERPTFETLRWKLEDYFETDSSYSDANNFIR

[16] = molecular target: PHKG1 (human) (UniProt Q16816)
PHKG1 (human), sequence (Q16816 whole entry, looked up): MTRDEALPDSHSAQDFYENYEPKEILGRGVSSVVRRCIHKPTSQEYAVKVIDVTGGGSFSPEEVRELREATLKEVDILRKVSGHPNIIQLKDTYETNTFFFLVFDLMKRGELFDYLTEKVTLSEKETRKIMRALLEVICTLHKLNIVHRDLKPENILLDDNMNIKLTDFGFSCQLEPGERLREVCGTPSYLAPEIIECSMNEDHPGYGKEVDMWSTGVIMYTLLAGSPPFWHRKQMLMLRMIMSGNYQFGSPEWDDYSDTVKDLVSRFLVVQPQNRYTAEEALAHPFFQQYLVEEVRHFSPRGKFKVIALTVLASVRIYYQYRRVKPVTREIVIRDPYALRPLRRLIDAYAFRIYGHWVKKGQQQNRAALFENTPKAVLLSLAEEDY

[17] = molecular target: TYRO3 (human) (UniProt Q06418)
[18] = molecular target: ROS1 (human) (UniProt P08922)
[19] = molecular target: YES1 (human) (UniProt P07947)
[20] = molecular target: KIT (human) (UniProt P10721)
KIT (human), sequence (P10721 whole entry, looked up): as the sequence (P10721 whole entry T670I, looked up) above, with I670T counted along it

[21] = molecular target: PRKAA2 PRKAB1 PRKAG1 (human) (UniProt Q9Y478+P54646+P54619)
[22] = molecular target: AXL (human) (UniProt P30530)
[23] = molecular target: CAMK2A (human) (UniProt Q9UQM7); conditions: compound 1.0 µM
[24] = molecular target: DAPK1 (human) (UniProt P53355)
[25] = molecular target: BLK (human) (UniProt P51451)
[26] = test system: FGFR3 (human), P22607 [K650E]
[27] = molecular target: PASK (human) (UniProt Q96RG2)
[28] = test system: EGFR (human), P00533 [T790M/L858R]
EGFR (human), P00533 [T790M/L858R], sequence (P00533 whole entry T790M/L858R, looked up): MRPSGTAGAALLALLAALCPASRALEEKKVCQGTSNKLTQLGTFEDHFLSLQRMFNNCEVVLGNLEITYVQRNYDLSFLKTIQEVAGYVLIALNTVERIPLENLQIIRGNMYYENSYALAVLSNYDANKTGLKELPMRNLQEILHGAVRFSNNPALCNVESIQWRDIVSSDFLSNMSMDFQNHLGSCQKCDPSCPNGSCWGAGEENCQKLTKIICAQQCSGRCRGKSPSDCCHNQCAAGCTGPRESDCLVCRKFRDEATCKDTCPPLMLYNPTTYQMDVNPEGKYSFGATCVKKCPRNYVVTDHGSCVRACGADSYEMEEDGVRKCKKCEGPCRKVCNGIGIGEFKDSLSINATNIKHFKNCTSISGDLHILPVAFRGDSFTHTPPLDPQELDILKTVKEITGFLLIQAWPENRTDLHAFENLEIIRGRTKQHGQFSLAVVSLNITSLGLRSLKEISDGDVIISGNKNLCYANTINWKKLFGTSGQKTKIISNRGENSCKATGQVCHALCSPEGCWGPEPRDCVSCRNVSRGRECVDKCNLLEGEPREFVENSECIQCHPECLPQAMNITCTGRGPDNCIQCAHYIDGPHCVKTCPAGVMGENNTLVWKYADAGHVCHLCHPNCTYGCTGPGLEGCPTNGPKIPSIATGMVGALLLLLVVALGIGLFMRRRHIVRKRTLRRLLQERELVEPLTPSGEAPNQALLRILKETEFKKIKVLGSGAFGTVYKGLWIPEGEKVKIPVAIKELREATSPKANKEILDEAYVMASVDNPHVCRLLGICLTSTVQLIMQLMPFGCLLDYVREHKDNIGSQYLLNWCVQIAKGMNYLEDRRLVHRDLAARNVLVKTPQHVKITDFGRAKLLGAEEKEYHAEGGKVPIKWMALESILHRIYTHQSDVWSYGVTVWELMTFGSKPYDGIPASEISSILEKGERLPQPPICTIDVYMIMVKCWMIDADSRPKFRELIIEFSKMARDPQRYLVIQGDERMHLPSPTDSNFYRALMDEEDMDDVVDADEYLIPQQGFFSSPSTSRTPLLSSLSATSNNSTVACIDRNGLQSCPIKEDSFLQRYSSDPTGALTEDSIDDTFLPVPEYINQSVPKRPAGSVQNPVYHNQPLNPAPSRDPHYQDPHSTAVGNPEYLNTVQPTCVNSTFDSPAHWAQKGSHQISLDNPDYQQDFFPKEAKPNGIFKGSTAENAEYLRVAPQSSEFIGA

[29] = molecular target: DYRK3 (human) (UniProt O43781)
[30] = molecular target: PIM3 (human) (UniProt Q86V86)
[31] = molecular target: CSNK1G2 (human) (UniProt P78368)
[32] = molecular target: DCLK1 (human) (UniProt O15075)
DCLK1 (human), sequence (O15075 whole entry, looked up): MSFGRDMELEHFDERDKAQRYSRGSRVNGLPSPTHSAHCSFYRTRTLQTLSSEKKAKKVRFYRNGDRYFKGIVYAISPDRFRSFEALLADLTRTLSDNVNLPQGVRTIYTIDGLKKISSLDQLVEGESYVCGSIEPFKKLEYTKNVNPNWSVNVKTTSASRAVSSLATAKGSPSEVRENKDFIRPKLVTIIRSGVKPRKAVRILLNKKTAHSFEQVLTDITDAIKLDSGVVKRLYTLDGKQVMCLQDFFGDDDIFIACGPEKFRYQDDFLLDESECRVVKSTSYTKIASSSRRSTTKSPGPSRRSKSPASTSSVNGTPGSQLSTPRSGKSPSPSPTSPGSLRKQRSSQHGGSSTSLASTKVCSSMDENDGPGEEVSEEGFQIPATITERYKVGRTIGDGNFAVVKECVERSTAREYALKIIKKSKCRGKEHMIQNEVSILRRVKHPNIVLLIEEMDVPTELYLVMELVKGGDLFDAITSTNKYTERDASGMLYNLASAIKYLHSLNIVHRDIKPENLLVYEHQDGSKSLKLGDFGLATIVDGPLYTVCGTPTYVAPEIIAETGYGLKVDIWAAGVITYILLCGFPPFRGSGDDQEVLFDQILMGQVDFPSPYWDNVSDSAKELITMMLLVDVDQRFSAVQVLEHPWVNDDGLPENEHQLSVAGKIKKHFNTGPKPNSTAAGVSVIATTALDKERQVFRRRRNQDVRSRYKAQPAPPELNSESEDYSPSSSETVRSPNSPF

[33] = molecular target: HIPK1 (human) (UniProt Q86Z02)

PDGFRA (human), P16234 [V561D], sequence (P16234 whole entry V561D, looked up): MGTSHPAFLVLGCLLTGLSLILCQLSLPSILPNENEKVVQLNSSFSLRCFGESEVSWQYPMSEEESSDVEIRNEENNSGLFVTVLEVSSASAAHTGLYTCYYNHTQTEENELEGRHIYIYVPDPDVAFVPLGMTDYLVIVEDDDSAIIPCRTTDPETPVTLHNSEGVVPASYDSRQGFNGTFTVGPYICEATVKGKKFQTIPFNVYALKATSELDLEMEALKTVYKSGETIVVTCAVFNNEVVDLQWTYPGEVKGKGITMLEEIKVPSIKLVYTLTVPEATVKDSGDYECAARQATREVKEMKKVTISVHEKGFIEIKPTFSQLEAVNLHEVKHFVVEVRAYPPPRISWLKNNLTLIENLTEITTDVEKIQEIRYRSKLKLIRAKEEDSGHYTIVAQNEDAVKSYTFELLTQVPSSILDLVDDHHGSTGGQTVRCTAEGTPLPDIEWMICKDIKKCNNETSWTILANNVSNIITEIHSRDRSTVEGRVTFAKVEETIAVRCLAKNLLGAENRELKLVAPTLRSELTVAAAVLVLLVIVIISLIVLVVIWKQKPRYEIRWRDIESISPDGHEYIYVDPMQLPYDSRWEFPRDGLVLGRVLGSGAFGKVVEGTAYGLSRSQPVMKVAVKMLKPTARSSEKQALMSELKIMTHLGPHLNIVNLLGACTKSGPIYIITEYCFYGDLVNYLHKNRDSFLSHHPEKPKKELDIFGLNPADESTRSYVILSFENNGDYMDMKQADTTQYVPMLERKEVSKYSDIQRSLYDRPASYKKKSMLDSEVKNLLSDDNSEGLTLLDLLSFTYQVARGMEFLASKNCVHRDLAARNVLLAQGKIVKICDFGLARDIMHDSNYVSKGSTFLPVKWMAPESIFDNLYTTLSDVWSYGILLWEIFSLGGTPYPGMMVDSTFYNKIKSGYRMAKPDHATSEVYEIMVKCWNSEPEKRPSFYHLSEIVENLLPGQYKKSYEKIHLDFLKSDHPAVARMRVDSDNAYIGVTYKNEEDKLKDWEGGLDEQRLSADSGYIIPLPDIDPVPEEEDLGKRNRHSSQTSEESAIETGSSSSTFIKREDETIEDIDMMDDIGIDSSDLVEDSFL

## CN(c1ccc2ccc3ncc(-c4cnn(C)c4)cc3c(=O)c2c1)S(=O)(=O)NCc1ccccn1
[1]; compound 0.1 µM
  inhibition: 11.2%
[1]; compound 1.0 µM
  inhibition: 1.9%
[2]; compound 0.1 µM
  inhibition: -11.4%
[2]; compound 1.0 µM
  inhibition: 26.7%
[3]; compound 0.1 µM
  inhibition: 23.8%
[3]; compound 1.0 µM
  inhibition: 78.2%
[4]; compound 0.1 µM
  inhibition: 7.3%
[4]; compound 1.0 µM
  inhibition: 16%
[5]; compound 0.1 µM
  inhibition: 16.9%
[5]; compound 1.0 µM
  inhibition: 61.1%
[6]; compound 0.1 µM
  inhibition: -1.9%
[6]; compound 1.0 µM
  inhibition: 4.6%
[7]; compound 0.1 µM
  inhibition: 0.2%
[7]; compound 1.0 µM
  inhibition: 21.4%
[8]; compound 0.1 µM
  inhibition: 11.5%
[8]; compound 1.0 µM
  inhibition: 45.5%
[9]; compound 0.1 µM
  inhibition: 9.7%
[9]; compound 1.0 µM
  inhibition: 6.5%
[10]; compound 0.1 µM
  inhibition: 5%
[10]; compound 1.0 µM
  inhibition: 10.3%
[11]; compound 0.1 µM
  inhibition: 8.7%
[11]; compound 1.0 µM
  inhibition: 14.7%
[12]; compound 0.1 µM
  inhibition: 3.2%
[12]; compound 1.0 µM
  inhibition: 16.8%
[13]; compound 0.1 µM
  inhibition: 0.5%
[13]; compound 1.0 µM
  inhibition: 5.6%
[14]; compound 0.1 µM
  inhibition: 17.8%
[14]; compound 1.0 µM
  inhibition: 12.7%
[15]; compound 0.1 µM
  inhibition: 1%
[15]; compound 1.0 µM
  inhibition: 8%
[16]; compound 0.1 µM
  inhibition: -1.3%
[16]; compound 1.0 µM
  inhibition: 17.4%
[17]; compound 0.1 µM
  inhibition: 20.2%
[17]; compound 1.0 µM
  inhibition: 66.3%
[18]; compound 0.1 µM
  inhibition: 1%
[18]; compound 1.0 µM
  inhibition: 12%
[19]; compound 0.1 µM
  inhibition: -7.2%
[19]; compound 1.0 µM
  inhibition: 29.9%
[20]; compound 0.1 µM
  inhibition: -0.2%
[20]; compound 1.0 µM
  inhibition: 8.9%
[21]; compound 0.1 µM
  inhibition: 3.4%
[21]; compound 1.0 µM
  inhibition: 17.6%
[22]; compound 0.1 µM
  inhibition: 30.6%
[22]; compound 1.0 µM
  inhibition: 77.3%
[23]
  inhibition: 4.4%
[24]; compound 0.1 µM
  inhibition: 3%
[24]; compound 1.0 µM
  inhibition: 9.2%
[25]; compound 0.1 µM
  inhibition: -30.4%
[25]; compound 1.0 µM
  inhibition: 29.2%
[26]; compound 0.1 µM
  inhibition: 15.1%
[26]; compound 1.0 µM
  inhibition: 59.4%
[27]; compound 0.1 µM
  inhibition: -10.1%
[27]; compound 1.0 µM
  inhibition: 5.9%
[28]; compound 0.1 µM
  inhibition: 6.2%
[28]; compound 1.0 µM
  inhibition: 2.9%
[29]; compound 0.1 µM
  inhibition: 9.6%
[29]; compound 1.0 µM
  inhibition: 21.5%
[30]; compound 0.1 µM
  inhibition: 4%
[30]; compound 1.0 µM
  inhibition: 0.2%
[31]; compound 0.1 µM
  inhibition: -9%
[31]; compound 1.0 µM
  inhibition: 1.2%
[32]; compound 0.1 µM
  inhibition: 3.5%
[32]; compound 1.0 µM
  inhibition: 5.9%
[33]; compound 0.1 µM
  inhibition: 1%
[33]; compound 1.0 µM
  inhibition: 5.5%
